From US5087440A, “Heterocyclic derivatives of DTPA used for magnetic resonance imaging” (Salutar, Inc., priority 1990, dated 1992)

How the values were obtained:
[1] = test system: Swiss Webster mice; assay: Acute toxicity (LD50), iv administration to mice; format: in vivo; conditions: 500 mM Gd chelate alone or with 25 mM added Ca chelate
Protocol: Acute toxicity (LD50) values were determined for compositions comprising 500 mM Gd DTPA-APD alone or together with 25 mM of the calcium chelate of DTPA-APD and, for further comparison, for compositions comprising 500 mM Gd DTPA-dimeglumine alone or together with 25 mM of a calcium chelate of DTPA or a DTPA-bisamide (the bismethylamide. The acute toxicities were determined by iv administrations of the compositions to Swiss Webster mice.

[2] = iv administration; AU-81889/87; cited from earlier work

## CNC[C@H](O)[C@@H](O)[C@H](O)[C@H](O)CO.CNC[C@H](O)[C@@H](O)[C@H](O)[C@H](O)CO.O=C([O-])CN(CCN(CC(=O)[O-])CC(=O)O)CCN(CC(=O)[O-])CC(=O)O.[Gd+3] [Gd DTPA]
[1]
  LD50 (iv mice): 5.5 mmol/kg
[2]
  gadolinium retention (in words): gadolinium retention following iv administration
